Paper PMC6099740, “Design, Synthesis and Biological Evaluation of 6,7-Disubstituted-4-phenoxyquinoline Derivatives Bearing Pyridazinone Moiety as c-Met Inhibitors” (Molecules : A Journal of Synthetic Chemistry and Natural …, 2018)

Legend:
c-Met kinase = c-Met kinase (Homo sapiens, UniProt P08581); assay: c-Met kinase inhibition assay (HTRF; mobility shift)
Procedure: All kinase assays were performed in 96-well plates in a 50 µL reaction volume. The kinase buffer contains 50 mM HEPES, pH 7.5, 10 mM MgCl2, 0.0015% Brij-35 and 2 mM DTT. The stop buffer contains 100 mM HEPES, pH 7.5, 0.015% Brij-35, 0.2% Coating Reagent 3 and 50 mM EDTA. Dilute the compounds to 500 µM by 100% DMSO, then transfer 10 µL of compound to a new 96-well plate as the intermediate plate, add 90 µL kinase buffer to each well. Transfer 5 µL of each well of the intermediate plate to 384-well plates. The following amounts of enzyme and substrate were used per well: kinase base buffer, FAM-labeled peptide, ATP and enzyme solution. Wells containing the substrate, enzyme, DMSO without compound were used as DMSO control. Wells containing just the substrate without enzyme were used as low control. Incubate at room temperature for 10 min. Add 10 µL peptide solution to each well. […] At last collect data on Caliper program and convert conversion values to inhibition values. Percent inhibition = (max − conversion)/(max − min) × 100. ‘max’ stands for DMSO control; ‘min’ stands for low control [20].

A549 cells = assay: MTT cytotoxicity assay, A549; type: cell-based; settings: Homo sapiens, 72 h
Procedure: (§1) The results expressed as IC50 values were summarized in Table 1, and the values were the average of at least two independent experiments.
(§2) The cancer cell lines were cultured in minimum essential medium (MEM) supplement with 10% fetal bovine serum (FBS). […] The test compounds at indicated final concentrations were added to the culture medium and the cell cultures were continued for 72 h. […] All of the compounds were tested two times in each of the cell lines. The results expressed as inhibition rates or IC50 (half-maximal inhibitory concentration) were the averages of two determinations and calculated by using the Bacus Laboratories Incorporated Slide Scanner (Bliss) software (the Bacus Laboratories Inc. Slide Scanner (BLISS) system, Lombard, IL, USA)..

MCF-7 cells = assay: MTT cytotoxicity assay, MCF-7; type: cell-based; settings: Homo sapiens, MCF7, 72 h
Procedure: as §1, §2

HepG2 cells = assay: MTT cytotoxicity assay, HepG2; type: cell-based; settings: Homo sapiens, 72 h
Procedure: as §1
The cancer cell lines were cultured in minimum essential medium (MEM) supplement with 10% fetal bovine serum (FBS). Approximately 4 × 10^3 cells, suspended in MEM medium, were plated onto each well of a 96-well plate and incubated in 5% CO2 at 37 °C for 24 h. The test compounds at indicated final concentrations were added to the culture medium and the cell cultures were continued for 72 h. Fresh MTT was added to each well at a terminal concentration of 5 μg/mL and incubated with cells at 37 °C for 4 h. The formazan crystals were dissolved in 100 μL DMSO each well, and the absorbency at 492 nm (for absorbance of MTT formazan) and 630 nm (for the reference wavelength) was measured with the ELISA reader. All of the compounds were tested two times in each of the cell lines. The results expressed as inhibition rates or IC50 (half-maximal inhibitory concentration) were the averages of two determinations and calculated by using the Bacus Laboratories Incorporated Slide Scanner (Bliss) software (the Bacus Laboratories Inc. Slide Scanner (BLISS) system, Lombard, IL, USA)..

Sequence of c-Met kinase (P08581 25-1390): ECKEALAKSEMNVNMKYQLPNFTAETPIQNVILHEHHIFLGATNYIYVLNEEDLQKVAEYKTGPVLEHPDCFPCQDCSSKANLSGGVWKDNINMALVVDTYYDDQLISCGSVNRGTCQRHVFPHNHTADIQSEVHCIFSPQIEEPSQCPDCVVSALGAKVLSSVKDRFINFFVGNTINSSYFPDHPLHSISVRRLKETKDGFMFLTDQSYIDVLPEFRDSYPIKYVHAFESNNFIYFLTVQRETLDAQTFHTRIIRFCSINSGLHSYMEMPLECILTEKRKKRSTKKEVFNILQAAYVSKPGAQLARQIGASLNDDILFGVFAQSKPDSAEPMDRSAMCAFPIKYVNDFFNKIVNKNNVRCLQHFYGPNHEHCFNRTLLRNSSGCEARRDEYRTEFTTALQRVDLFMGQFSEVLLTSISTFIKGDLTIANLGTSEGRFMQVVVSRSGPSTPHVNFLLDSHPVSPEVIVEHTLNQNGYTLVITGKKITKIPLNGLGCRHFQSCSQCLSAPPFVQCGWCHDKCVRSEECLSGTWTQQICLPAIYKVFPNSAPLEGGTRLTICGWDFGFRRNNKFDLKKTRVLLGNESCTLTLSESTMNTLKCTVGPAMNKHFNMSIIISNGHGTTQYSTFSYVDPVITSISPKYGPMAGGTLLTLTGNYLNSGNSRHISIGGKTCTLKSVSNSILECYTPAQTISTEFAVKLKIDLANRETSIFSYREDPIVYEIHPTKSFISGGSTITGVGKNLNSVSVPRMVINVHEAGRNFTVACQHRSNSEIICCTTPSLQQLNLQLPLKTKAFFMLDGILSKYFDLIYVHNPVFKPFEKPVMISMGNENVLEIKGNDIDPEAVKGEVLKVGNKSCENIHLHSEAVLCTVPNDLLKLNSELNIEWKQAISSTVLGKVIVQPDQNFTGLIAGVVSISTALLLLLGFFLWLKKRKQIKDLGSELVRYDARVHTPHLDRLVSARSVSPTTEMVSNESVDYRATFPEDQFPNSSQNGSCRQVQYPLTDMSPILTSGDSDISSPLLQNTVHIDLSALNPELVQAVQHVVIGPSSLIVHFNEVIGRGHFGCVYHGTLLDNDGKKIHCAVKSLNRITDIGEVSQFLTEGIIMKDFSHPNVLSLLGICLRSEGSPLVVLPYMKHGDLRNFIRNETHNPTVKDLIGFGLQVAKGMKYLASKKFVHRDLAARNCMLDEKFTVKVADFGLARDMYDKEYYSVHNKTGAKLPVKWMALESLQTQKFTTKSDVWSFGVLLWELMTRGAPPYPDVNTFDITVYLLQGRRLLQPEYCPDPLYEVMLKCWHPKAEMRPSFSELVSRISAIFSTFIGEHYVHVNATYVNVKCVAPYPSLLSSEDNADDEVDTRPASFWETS

| SMILES | IC50 (c-Met kinase) [µM] | melting point [°C] | IC50 (A549 cells) [µM] | IC50 (MCF-7 cells) [µM] | IC50 (HepG2 cells) [µM] |
| --- | --- | --- | --- | --- | --- |
| COc1cc2c(Oc3ccc(NC(=O)c4nn(-c5ccc(Cl)cc5)ccc4=O)cc3F)ccnc2cc1OCCCN1CCN(C)CC1 [Compound 47, 1-(4-Chlorophenyl)-N-(3-fluoro-4-((6-methoxy-7-(3-(4-methylpiperazin-1-yl)propoxy)quinolin-4-yl)oxy)phenyl)-4-oxo-1,4-dihydropyridazine-3-carboxamide] | 0.145 | 163.5 to 165.3 | 20 ± 1.3 | 21.1 ± 1.32 | 14.2 ± 1.15 |
| COc1cc2c(Oc3ccc(NC(=O)c4nn(-c5ccc(Br)cc5F)ccc4=O)cc3F)ccnc2cc1OCCCN1CCN(C)CC1 [Compound 51, 1-(4-Bromo-2-fluorophenyl)-N-(3-fluoro-4-((6-methoxy-7-(3-(4-methylpiperazin-1-yl)propoxy)quinolin-4-yl)oxy)phenyl)-4-oxo-1,4-dihydropyridazine-3-carboxamide] | 0.123 |  | 5.63 ± 0.75 | 5.43 ± 0.74 | 6.39 ± 0.81 |
| COc1cc2c(Oc3ccc(NC(=O)c4nn(-c5ccc(Cl)cc5)ccc4=O)cc3F)ccnc2cc1OCCCN1CCOCC1 [Compound 23, 1-(4-Chlorophenyl)-N-(3-fluoro-4-((6-methoxy-7-(3-morpholinopropoxy)quinolin-4-yl)oxy)phenyl)-4-oxo-1,4-dihydropyridazine-3-carboxamide] | > 0.5 | 138.2 to 139.1 | > 50 | > 50 | > 50 |
| COc1cc2c(Oc3ccc(NC(=O)c4nn(-c5ccc(F)c(Cl)c5)ccc4=O)cc3F)ccnc2cc1OCCCN1CCCCC1 [Compound 34, 1-(3-Chloro-4-fluorophenyl)-N-(3-fluoro-4-((6-methoxy-7-(3-(piperidin-1-yl)propoxy)quinolin-4-yl)oxy)phenyl)-4-oxo-1,4-dihydropyridazine-3-carboxamide] | 0.002 | 121.7 to 123.4 | 0.36 ± 0.04 | 0.15 ± 0.04 | 1.28 ± 0.11 |
| COc1cc2c(Oc3ccc(NC(=O)c4nn(-c5ccc(Br)cc5)ccc4=O)cc3F)ccnc2cc1OCCCN1CCC(C)CC1 [Compound 40, 1-(4-Bromophenyl)-N-(3-fluoro-4-((6-methoxy-7-(3-(4-methylpiperidin-1-yl)propoxy)quinolin-4-yl)oxy)phenyl)-4-oxo-1,4-dihydropyridazine-3-carboxamide] | 0.345 | 220.7 to 221.4 | 13.5 ± 1.13 | 9.74 ± 0.99 | 8.84 ± 0.95 |
| COc1cc2c(Oc3ccc(NC(=O)c4nn(-c5ccc(Cl)c(C(F)(F)F)c5)ccc4=O)cc3F)ccnc2cc1OCCCN1CCC(C)CC1 [Compound 44, 1-(4-Chloro-3-(trifluoromethyl)phenyl)-N-(3-fluoro-4-((6-methoxy-7-(3-(4-methylpiperidin-1-yl)propoxy)quinolin-4-yl)oxy)phenyl)-4-oxo-1,4-dihydropyridazine-3-carboxamide] | 0.019 | 137.7 to 138.6 | 0.15 ± 0.03 | 5.96 ± 0.07 | 0.65 ± 0.05 |
| COc1cc2c(Oc3ccc(NC(=O)c4nn(-c5ccc(Cl)c(C(F)(F)F)c5)ccc4=O)cc3F)ccnc2cc1OCCCN1CCOCC1 [Compound 28, 1-(4-Chloro-3-(trifluoromethyl)phenyl)-N-(3-fluoro-4-((6-methoxy-7-(3-morpholinopropoxy)quinolin-4-yl)oxy)phenyl)-4-oxo-1,4-dihydropyridazine-3-carboxamide] | 0.382 | 203.5 to 204.7 | 5.25 ± 0.72 | 7.49 ± 0.87 | > 50 |
| COc1cc2c(Oc3ccc(NC(=O)c4nn(-c5ccc(Br)cc5F)ccc4=O)cc3F)ccnc2cc1OCCCN1CCOCC1 [Compound 27, 1-(4-Bromo-2-fluorophenyl)-N-(3-fluoro-4-((6-methoxy-7-(3-morpholinopropoxy)quinolin-4-yl)oxy)phenyl)-4-oxo-1,4-dihydropyridazine-3-carboxamide] | 0.478 | 113.7 to 115.1 | > 50 | > 50 | > 50 |
| COc1cc2c(Oc3ccc(NC(=O)C4(C(=O)Nc5ccc(F)cc5)CC4)cc3F)ccnc2cc1OCCCN1CCOCC1 [Foretinib, reference compound] |  |  |  |  | 0.84 ± 0.07 |

The next lines start with results.

| IC50 (c-Met kinase) [µM] | melting point [°C] | SMILES | IC50 (A549 cells) [µM] | IC50 (MCF-7 cells) [µM] | IC50 (HepG2 cells) [µM] |
| --- | --- | --- | --- | --- | --- |
| > 0.5 | 210.1 to 211.4 | COc1cc2c(Oc3ccc(NC(=O)c4nn(-c5ccc(F)cc5)ccc4=O)cc3F)ccnc2cc1OCCCN1CCC(C)CC1 [Compound 38, N-(3-Fluoro-4-((6-methoxy-7-(3-(4-methylpiperidin-1-yl)propoxy)quinolin-4-yl)oxy)phenyl)-1-(4-fluorophenyl)-4-oxo-1,4-dihydropyridazine-3-carboxamide] | 28.9 ± 1.46 | 22.5 ± 1.35 | 47.2 ± 1.67 |
| 0.078 | 158.2 to 159.6 | COc1cc2c(Oc3ccc(NC(=O)c4nn(-c5ccc(Cl)cc5)ccc4=O)cc3F)ccnc2cc1OCCCN1CCCCC1 [Compound 31, 1-(4-Chlorophenyl)-N-(3-fluoro-4-((6-methoxy-7-(3-(piperidin-1-yl)propoxy)quinolin-4-yl)oxy)phenyl)-4-oxo-1,4-dihydropyridazine-3-carboxamide] | 0.57 ± 0.02 | 1.16 ± 0.06 | 0.69 ± 0.03 |
| 0.008 | 105.9 to 107.4 | COc1cc2c(Oc3ccc(NC(=O)c4nn(-c5ccc(Br)cc5F)ccc4=O)cc3F)ccnc2cc1OCCCN1CCCCC1 [Compound 35, 1-(4-Bromo-2-fluorophenyl)-N-(3-fluoro-4-((6-methoxy-7-(3-(piperidin-1-yl)propoxy)quinolin-4-yl)oxy)phenyl)-4-oxo-1,4-dihydropyridazine-3-carboxamide] | 1.36 ± 0.19 | 1.19 ± 0.08 | 3.1 ± 0.49 |
| 0.016 | 118.7 to 119.8 | COc1cc2c(Oc3ccc(NC(=O)c4nn(-c5ccccc5)ccc4=O)cc3F)ccnc2cc1OCCCN1CCOCC1 [Compound 29, N-(3-Fluoro-4-((6-methoxy-7-(3-morpholinopropoxy)quinolin-4-yl)oxy)phenyl)-4-oxo-1-phenyl-1,4-dihydropyridazine-3-carboxamide] | 0.2 ± 0.02 | 0.03 ± 0.01 | 2.27 ± 0.36 |
| 0.002 |  | COc1cc2c(Oc3ccc(NC(=O)c4nn(-c5ccc(F)c(Cl)c5)ccc4=O)cc3F)ccnc2cc1OCCCN1CCN(C)CC1 [Compound 50, 1-(3-Chloro-4-fluorophenyl)-N-(3-fluoro-4-((6-methoxy-7-(3-(4-methylpiperazin-1-yl)propoxy)quinolin-4-yl)oxy)phenyl)-4-oxo-1,4-dihydropyridazine-3-carboxamide] | 0.02 ± 0.01 | 0.02 ± 0.01 | 2.46 ± 0.39 |
| 0.169 | 220.6 to 222.1 | COc1cc2c(Oc3ccc(NC(=O)c4nn(-c5ccc(Cl)cc5)ccc4=O)cc3F)ccnc2cc1OCCCN1CCC(C)CC1 [Compound 39, 1-(4-Chlorophenyl)-N-(3-fluoro-4-((6-methoxy-7-(3-(4-methylpiperidin-1-yl)propoxy)quinolin-4-yl)oxy)phenyl)-4-oxo-1,4-dihydropyridazine-3-carboxamide] | 12.4 ± 1.09 | 14.1 ± 1.15 | 7.81 ± 0.89 |
| 0.011 | 185.7 to 186.6 | COc1cc2c(Oc3ccc(NC(=O)c4nn(-c5ccc(Cl)c(C(F)(F)F)c5)ccc4=O)cc3F)ccnc2cc1OCCCN1CCCCC1 [Compound 36, 1-(4-Chloro-3-(trifluoromethyl)phenyl)-N-(3-fluoro-4-((6-methoxy-7-(3-(piperidin-1-yl)propoxy)quinolin-4-yl)oxy)phenyl)-4-oxo-1,4-dihydropyridazine-3-carboxamide] | 0.79 ± 0.06 | 0.73 ± 0.08 | 1.8 ± 0.26 |
| 0.352 | 138.1 to 140.6 | COc1cc2c(Oc3ccc(NC(=O)c4nn(-c5ccc(F)c(Cl)c5)ccc4=O)cc3F)ccnc2cc1OCCCN1CCOCC1 [Compound 26, 1-(3-Chloro-4-fluorophenyl)-N-(3-fluoro-4-((6-methoxy-7-(3-morpholinopropoxy)quinolin-4-yl)oxy)phenyl)-4-oxo-1,4-dihydropyridazine-3-carboxamide] | 3.7 ± 0.57 | 5.96 ± 0.77 | > 50 |
| 0.039 |  | COc1cc2c(Oc3ccc(NC(=O)c4nn(-c5ccc(F)cc5)ccc4=O)cc3F)ccnc2cc1OCCCN1CCN(C)CC1 [Compound 46, N-(3-Fluoro-4-((6-methoxy-7-(3-(4-methylpiperazin-1-yl)propoxy)quinolin-4-yl)oxy)phenyl)-1-(4-fluorophenyl)-4-oxo-1,4-dihydropyridazine-3-carboxamide] | 1.64 ± 0.22 | 1.66 ± 0.22 | 7.51 ± 0.87 |
